The subject of assay [1] is NMDA receptor. Kind of assay: Whole cell patch-clamp recording of NMDA induced currents in pyramidal neurons of rat brain prefrontal cortex slices. In kind it is cell-based. Particulars: Tested at 30 pM (so in the source); 50 μM NMDA; rat brain cortex slices. On the procedure: (§1) Additionally biological activity of compounds as antagonists of AMPA receptors or NMDA receptors (also called ionotropic glutamate-gated ion channels) were conducted using ex vivo functional electrophysiological assays of pyramidal neurons in slices of rat brain prefrontal cortex. Effects of test compounds cf. reference compounds were studied by whole cell patch-clamp electrophysiology recordings of s-AMPA-induced currents or NMDA-induced currents, respectively, using rat brain slice prefrontal cortex (layer V) pyramidal neurons.
Male Sprague Dawley rats were supplied by Charles River Laboratories (Wilmington, Mass. USA) and were housed 4 per cage within a temperature (20.5-23.5° C.) and humidity (30-80%) controlled environment on a 12 hour light/dark cycle with access to food (Teklad Global Soy Protein, Cat. No. T.2920X10, Envigo, Indianapolis, Ind., USA) and water ad libitum. […]
(§2) All test compound experiments were carried out in the voltage-clamp recording configuration of the whole cell patch-clamp technique and all recordings performed at a holding potential of −60 mV. Recordings were monitored on a Dell personal computer (PC) running Axon pClamp software (Molecular Devices, Sunnyvale, Calif., USA) and digitized at 10 kHz. […]

For assay [2], the system named is AMPA receptor. Kind of assay: Whole cell patch-clamp recording of s-AMPA induced currents in pyramidal neurons of rat brain prefrontal cortex slices. In kind it is cell-based. Particulars: 20 μM s-AMPA, rat brain cortex slices. As to the method:
as §1
Male Sprague Dawley rats were supplied by Charles River Laboratories (Wilmington, Mass. USA) and were housed 4 per cage within a temperature (20.5-23.5° C.) and humidity (30-80%) controlled environment on a 12 hour light/dark cycle with access to food (Teklad Global Soy Protein, Cat. No. T.2920X10, Envigo, Indianapolis, Ind., USA) and water ad libitum. At 4-6 weeks of age rats were terminally anaesthetized using isofluorane [(1-chloro-2,2,2-trifluoroethyl difluoromethyl ether) supplied by Baxter Healthcare Corp, Deerfield, Ill., USA], and decapitated. The brain was removed and 300 μm thick coronal prefrontal cortex (PFC) or sagittal hippocampal slices were sectioned using a Vibratome microtome. After brain removal, and throughout slicing, the tissue was submerged in ice cold […] cerebrospinal fluid (aCSF). Once slices were cut, they were transferred to a beaker containing aCSF and left at room temperature for a minimum of 1 hour before commencing electrophysiological recordings. After this period, individual slices were transferred to a recording chamber continuously perfused with aCSF at a rate of 4-6 mL/min before commencing experiment protocols. aCSF composition (in mM): NaCl, 127; KCl, 1.9; KH2PO4, 1.2; CaCl2), 2.4; MgCl2, 1.3; NaHCO3, 26; D-glucose, 10; in water equilibrated with 95% Oxygen gas-5% CO2 gas (reagent suppliers listed below). Experiments investigating NMDA currents had aCSF supplemented with 10 μM glycine (reagents suppliers listed below). All experiments were conducted following protocols with the approval of an Institutional Animal Care and Use Committee (IACUC).
Whole cell patch-clamp recordings were performed from Layer V prefrontal cortex pyramidal neurons at room temperature using the ‘visualized’ version of the patch-clamp technique. […]
as §2
(In general: Patch clamp records ionic current or voltage across a cell membrane.)

Setting [3] is: Tested at 1 pM (so in the source).

A value given as a limit tells only on which side of the number the result lay.

The record followed here is patent publication US11685726B2, “Pharmaceutical compositions of 6-(2-(2H-tetrazol-5-yl)ethyl)-6-fluorodecahydroisoquinoline-3-carboxylic acid and ester derivatives thereof” (Sea Pharmaceuticals LLC, priority 2020, dated 2023).

In the case of `O=C(O)[C@@H]1C[C@H]2C[C@@](F)(CCc3nnn[nH]3)CC[C@H]2CN1` [Compound 1, (3S,4aS,6S,8aR)-6-fluoro-6-[2-(1H-1,2,3,4-tetrazol-5-yl)ethyl]-decahydroisoquinoline-3-carboxylic acid], the “% inhibition +/- SEM of NMDA induced currents in neurons” value in assay [1] is given as 61.0 ± 6.3 (n = 3) %. The results for the “% inhibition +/- SEM of s-AMPA induced currents in neurons” value in assay [2] (setting [3]) and in assay [2] (Tested at 10 pM (so in the source)) were 55.6 ± 5.8 (n = 3) % and >90 (n = 1) %, respectively.
In the case of `O=C(O)[C@@H]1C[C@H]2CC(F)(CCc3nnn[nH]3)CC[C@H]2CN1` (stereo in doubt) [Compound 2, (3S,4aS,6R,8aR)-6-fluoro-6-[2-(1H-1,2,3,4-tetrazol-5-yl)ethyl]-decahydroisoquinoline-3-carboxylic acid], in assay [2] (setting [3]), the “% inhibition +/- SEM of s-AMPA induced currents in neurons” value is listed as 21.4 ± 2.1 (n = 3) %.
